In one experiment the target is Troponin, cardiac muscle (Homo sapiens, UniProt P19429+P45379+P63316). Description: inhibitors of cardiac thin filament calcium sensitivity, dose response, biochemical, fluorescence, cardiac regulated thin filaments, triplicate IC50 (AID 504742). It counts as protein-complex assay.
Another experiment deals with Nonstructural protein 1 (Influenza A virus, UniProt Q194T2). The format is functional, Influenza A virus (A/California/07/2009(H1N1)).
In the next experiment the target is T1, Cysteine protease ATG4B (Homo sapiens, UniProt Q9Y4P1).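 Also: Fluorescence-based dose-response confirmation assay measuring inhibition of ATG4B activity.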
T1 sequence (Q9Y4P1 whole entry): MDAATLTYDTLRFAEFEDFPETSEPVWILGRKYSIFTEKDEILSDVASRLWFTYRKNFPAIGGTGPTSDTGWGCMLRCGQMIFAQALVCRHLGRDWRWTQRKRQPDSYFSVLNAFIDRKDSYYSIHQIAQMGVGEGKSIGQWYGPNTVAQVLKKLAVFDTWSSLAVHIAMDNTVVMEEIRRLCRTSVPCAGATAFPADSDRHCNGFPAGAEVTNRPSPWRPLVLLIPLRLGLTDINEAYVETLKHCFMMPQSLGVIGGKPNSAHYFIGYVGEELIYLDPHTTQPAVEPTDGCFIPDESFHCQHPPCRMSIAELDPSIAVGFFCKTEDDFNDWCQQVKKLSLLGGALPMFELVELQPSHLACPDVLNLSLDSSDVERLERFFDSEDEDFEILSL
The format is functional.

Another experiment has as its target Phospholipase A2 (Homo sapiens, UniProt P04054). The format is functional.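 Also: confirmatory dose-response counterscreen on phospholipase A2, testing hits that came from an ultra-high-throughput screen for ATG4B inhibitors.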
In experiment [1] the target is Dual specificity tyrosine-phosphorylation-regulated kinase 1A (Rattus norvegicus, UniProt Q63470). The format is biochemical, Homo sapiens.
A short description of experiment [2]: HeLa cell cytotoxicity, dose response, cytotoxicity control for MgcRacGAP inhibitor project (AID 624300). The format is functional.
In experiment [3] the target is T2, Rac GTPase-activating protein 1 (Homo sapiens, UniProt Q9H0H5).
T2 sequence (Q9H0H5 whole entry): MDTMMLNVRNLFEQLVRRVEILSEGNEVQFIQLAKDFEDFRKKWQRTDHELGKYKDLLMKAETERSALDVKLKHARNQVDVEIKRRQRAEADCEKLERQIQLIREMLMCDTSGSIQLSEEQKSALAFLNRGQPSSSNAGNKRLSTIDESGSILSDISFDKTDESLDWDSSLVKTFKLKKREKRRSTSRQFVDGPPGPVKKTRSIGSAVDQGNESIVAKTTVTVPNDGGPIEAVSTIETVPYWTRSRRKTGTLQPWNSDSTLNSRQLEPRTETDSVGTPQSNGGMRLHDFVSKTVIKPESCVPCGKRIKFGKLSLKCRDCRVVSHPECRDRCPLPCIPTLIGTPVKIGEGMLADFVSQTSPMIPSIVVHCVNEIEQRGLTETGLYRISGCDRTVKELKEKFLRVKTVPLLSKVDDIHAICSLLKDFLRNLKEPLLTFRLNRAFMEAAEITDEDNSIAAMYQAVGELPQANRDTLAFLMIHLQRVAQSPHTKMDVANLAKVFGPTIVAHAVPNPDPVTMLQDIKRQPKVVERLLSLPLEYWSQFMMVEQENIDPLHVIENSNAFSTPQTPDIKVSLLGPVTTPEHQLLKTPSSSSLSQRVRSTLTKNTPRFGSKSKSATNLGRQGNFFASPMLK
Nature of the experiment: MgcRacGAP GTPase-activating activity inhibitors, confirmation, biochemical, ADP Hunter fluorescence, primary and confirmatory (AID 624330). It counts as functional.

In experiment [4] the target is T3, DNA repair protein RAD52 homolog (Homo sapiens, UniProt P43351).
T3 sequence (P43351 whole entry): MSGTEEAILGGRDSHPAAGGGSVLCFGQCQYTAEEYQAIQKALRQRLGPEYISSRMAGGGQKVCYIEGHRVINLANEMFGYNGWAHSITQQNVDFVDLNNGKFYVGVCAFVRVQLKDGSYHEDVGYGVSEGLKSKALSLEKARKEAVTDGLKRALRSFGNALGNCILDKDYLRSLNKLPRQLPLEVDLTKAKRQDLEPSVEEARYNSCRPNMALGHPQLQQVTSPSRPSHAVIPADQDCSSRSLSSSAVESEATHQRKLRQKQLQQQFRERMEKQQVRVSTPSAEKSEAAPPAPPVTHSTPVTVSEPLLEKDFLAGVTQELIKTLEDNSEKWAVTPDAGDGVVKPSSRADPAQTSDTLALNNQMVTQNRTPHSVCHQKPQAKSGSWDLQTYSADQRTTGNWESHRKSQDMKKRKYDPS
The format is functional, biochemical.

Experiment [5] is described as follows: THP-1 cell cytotoxicity, dose response, cytotoxicity control for Vif-APOBEC3G degradation inhibitor project, THP-1 cells (AID 1117359). The format is functional. Particulars: Human immunodeficiency virus 1, THP-1.
The target of experiment [6] is Glutathione-S-transferase (Schistosoma japonicum, UniProt Q26513). Description: biotin-GST/anti-GST TR-FRET signal inhibitors, dose response, artefact control for Vif-APOBEC3G degradation inhibitor project, biochemical (AID 1117362). It counts as functional. On the technique in general: In TR-FRET formats the signal depends on donor and acceptor labels being close together.
Sequence of Glutathione-S-transferase (Q26513 whole entry): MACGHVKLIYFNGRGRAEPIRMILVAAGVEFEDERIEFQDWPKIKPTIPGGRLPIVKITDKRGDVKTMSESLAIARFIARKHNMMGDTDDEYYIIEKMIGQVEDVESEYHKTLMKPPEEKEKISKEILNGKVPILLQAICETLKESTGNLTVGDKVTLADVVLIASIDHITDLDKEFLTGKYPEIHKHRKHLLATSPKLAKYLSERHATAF

Experiment [7] concerns the target Potassium voltage-gated channel subfamily KQT member 2 (Rattus norvegicus, UniProt O88943). Nature of the experiment: retigabine-insensitive KCNQ2 potentiators, concentration-response, dose response, cell-based, retigabine-insensitive compounds (AID 2654). It counts as functional.
Experiment [8] addresses G-protein coupled receptor 55 (Homo sapiens, UniProt Q9Y2T6). Nature of the experiment: GPR55 agonists via beta-arrestin recruitment, primary screen, imaging, U2OS cells, beta-arrestin-GFP redistribution (AID 1961). It counts as functional. In general terms: Recruitment of arrestin is a read-out of receptor activation apart from second messengers.
Another experiment has as its target ORF 73 (Human herpesvirus 8, UniProt O40947). Description: inhibitors of C-LANA binding to LBS DNA, dose response, biochemical, fluorescence polarization, cherry-picked samples (AID 504725).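 Also: fluorescence polarization of a labeled DNA duplex reporting LANA DNA binding; potency is for inhibitors that block LANA binding to the DNA.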 Also on record: species or system Human gammaherpesvirus 8. Background: In fluorescence polarisation assays a small probe gives low polarisation when free and higher when bound to something large.

Experiment [9] addresses T4, Histone-lysine N-methyltransferase NSD2 (Homo sapiens, UniProt O96028).
T4 sequence (O96028 whole entry): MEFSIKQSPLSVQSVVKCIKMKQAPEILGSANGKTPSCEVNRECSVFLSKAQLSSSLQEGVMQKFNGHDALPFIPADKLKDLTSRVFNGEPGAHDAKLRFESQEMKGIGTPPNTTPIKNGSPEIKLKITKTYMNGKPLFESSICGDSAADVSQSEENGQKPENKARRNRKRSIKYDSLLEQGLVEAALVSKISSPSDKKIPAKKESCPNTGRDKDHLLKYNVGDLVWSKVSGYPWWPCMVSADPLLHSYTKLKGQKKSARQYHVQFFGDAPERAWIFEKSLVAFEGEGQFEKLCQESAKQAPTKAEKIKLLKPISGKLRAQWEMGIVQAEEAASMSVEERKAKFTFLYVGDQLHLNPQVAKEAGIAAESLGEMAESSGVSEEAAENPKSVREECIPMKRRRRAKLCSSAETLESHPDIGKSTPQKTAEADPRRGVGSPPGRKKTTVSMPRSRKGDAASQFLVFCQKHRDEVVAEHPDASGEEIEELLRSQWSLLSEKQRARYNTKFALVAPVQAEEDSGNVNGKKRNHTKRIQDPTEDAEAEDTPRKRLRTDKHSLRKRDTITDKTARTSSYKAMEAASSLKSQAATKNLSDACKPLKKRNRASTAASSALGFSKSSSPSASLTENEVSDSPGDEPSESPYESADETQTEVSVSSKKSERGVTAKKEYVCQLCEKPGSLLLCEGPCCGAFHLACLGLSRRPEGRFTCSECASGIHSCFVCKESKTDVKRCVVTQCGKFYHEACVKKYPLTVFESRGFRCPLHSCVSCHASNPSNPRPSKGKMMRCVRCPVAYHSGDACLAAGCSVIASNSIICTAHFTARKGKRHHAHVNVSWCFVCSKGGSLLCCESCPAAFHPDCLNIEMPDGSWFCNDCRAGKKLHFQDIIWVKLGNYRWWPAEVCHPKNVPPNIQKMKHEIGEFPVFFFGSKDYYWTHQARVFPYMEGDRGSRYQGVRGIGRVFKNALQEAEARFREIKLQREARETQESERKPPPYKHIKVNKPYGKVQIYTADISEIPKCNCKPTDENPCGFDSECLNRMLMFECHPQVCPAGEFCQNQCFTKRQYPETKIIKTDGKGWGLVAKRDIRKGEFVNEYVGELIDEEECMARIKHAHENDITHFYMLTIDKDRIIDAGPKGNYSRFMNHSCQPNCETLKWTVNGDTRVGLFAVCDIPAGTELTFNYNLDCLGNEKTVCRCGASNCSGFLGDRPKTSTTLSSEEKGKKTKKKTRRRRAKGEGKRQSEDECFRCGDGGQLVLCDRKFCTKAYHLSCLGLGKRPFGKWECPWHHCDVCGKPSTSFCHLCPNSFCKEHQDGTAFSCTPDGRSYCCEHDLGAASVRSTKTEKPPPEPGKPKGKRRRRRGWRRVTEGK
It counts as biochemical.

A short description of experiment [10]: cytotoxicity in BJeHLT fibroblasts, dose response, counter-screen for Ras selective lethality project, BJeHLT cells, dry powder (AID 493052). The format is functional, cell-based. Particulars: Homo sapiens.
Experiment [11] can be described thus: viability loss in HRASV12 DRD fibroblasts, dose response, cell-based, DRD BJ fibroblasts, dry powder (AID 493049). It counts as functional.
A short description of experiment [12]: viability loss in BJeLR (HRASV12) cells, primary screen, Ras selective lethality project, cell-based, Alamar Blue, dry powder (AID 493045). The format is functional.
Experiment [13] is described as follows: cytotoxicity in BJeH fibroblasts, dose response, counter-screen for Ras selective lethality project, BJeH cells, dry powder (AID 493054). It counts as functional, cell-based.
Experiment [14] deals with Glutathione S-transferase omega-1 (Homo sapiens, UniProt P78417). Nature of the experiment: GSTO1 inhibitor potency, recombinant enzyme, late-stage follow-up, biochemical, SE-Rh probe, in-gel fluorescence, powder samples, set 2 (AID 463142). It counts as functional.
Sequence of Glutathione S-transferase omega-1 (P78417 whole entry): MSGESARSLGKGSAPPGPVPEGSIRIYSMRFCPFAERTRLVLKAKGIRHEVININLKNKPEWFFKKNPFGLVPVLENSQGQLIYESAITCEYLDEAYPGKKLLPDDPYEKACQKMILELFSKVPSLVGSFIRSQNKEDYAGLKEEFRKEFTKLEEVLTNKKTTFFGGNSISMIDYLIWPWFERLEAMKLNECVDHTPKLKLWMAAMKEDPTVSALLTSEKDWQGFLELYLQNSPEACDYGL
The target in experiment [15] is T5, Mannose-6-phosphate isomerase (Homo sapiens, UniProt P34949).
T5 sequence (P34949 whole entry): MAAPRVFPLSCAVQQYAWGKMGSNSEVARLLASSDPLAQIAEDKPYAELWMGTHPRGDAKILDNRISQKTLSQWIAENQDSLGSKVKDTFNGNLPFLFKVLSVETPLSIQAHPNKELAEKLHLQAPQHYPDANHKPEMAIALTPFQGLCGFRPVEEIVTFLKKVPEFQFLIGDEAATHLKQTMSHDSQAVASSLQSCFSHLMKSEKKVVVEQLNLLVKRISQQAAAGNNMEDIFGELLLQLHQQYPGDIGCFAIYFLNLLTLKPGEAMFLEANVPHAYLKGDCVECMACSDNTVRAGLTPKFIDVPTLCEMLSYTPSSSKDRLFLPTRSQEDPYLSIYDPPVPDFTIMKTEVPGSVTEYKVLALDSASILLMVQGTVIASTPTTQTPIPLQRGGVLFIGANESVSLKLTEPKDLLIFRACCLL
Nature of the experiment: PMI enzyme inhibitors, confirmation, biochemical, fluorescence intensity (AID 1535).

In a further experiment the target is Phosphomannomutase 2 (Homo sapiens, UniProt O15305). Description: Counter screen SAR assay for PMM2 inhibitors via a fluorescence intensity assay. [Related pubchem assays (depositor defined):AID1545, AID1574].
Sequence of Phosphomannomutase 2 (O15305 whole entry): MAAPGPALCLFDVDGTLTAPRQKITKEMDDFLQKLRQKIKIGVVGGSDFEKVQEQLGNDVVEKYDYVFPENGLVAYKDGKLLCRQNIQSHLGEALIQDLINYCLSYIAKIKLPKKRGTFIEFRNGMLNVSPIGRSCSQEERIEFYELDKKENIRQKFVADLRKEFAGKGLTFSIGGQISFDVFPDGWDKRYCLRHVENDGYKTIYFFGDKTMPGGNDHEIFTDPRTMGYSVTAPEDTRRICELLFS
The target of experiment [16] is Phosphoethanolamine/phosphocholine phosphatase (Homo sapiens, UniProt Q8TCT1). Nature of the experiment: SAR assay for compounds that inhibit PHOSPHO1. [Related pubchem assays (depositor defined):AID1545, AID1565, AID1574].
Sequence of Phosphoethanolamine/phosphocholine phosphatase (Q8TCT1 whole entry): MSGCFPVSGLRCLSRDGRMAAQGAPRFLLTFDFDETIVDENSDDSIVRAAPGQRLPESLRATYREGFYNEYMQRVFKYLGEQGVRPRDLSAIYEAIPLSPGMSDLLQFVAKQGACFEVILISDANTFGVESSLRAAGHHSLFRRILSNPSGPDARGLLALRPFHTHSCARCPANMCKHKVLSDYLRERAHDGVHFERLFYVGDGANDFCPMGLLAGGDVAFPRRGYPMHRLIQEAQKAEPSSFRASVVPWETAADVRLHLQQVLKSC

Active and inactive are the calls of the source.

Sequence of Potassium voltage-gated channel subfamily KQT member 2 (O88943 whole entry): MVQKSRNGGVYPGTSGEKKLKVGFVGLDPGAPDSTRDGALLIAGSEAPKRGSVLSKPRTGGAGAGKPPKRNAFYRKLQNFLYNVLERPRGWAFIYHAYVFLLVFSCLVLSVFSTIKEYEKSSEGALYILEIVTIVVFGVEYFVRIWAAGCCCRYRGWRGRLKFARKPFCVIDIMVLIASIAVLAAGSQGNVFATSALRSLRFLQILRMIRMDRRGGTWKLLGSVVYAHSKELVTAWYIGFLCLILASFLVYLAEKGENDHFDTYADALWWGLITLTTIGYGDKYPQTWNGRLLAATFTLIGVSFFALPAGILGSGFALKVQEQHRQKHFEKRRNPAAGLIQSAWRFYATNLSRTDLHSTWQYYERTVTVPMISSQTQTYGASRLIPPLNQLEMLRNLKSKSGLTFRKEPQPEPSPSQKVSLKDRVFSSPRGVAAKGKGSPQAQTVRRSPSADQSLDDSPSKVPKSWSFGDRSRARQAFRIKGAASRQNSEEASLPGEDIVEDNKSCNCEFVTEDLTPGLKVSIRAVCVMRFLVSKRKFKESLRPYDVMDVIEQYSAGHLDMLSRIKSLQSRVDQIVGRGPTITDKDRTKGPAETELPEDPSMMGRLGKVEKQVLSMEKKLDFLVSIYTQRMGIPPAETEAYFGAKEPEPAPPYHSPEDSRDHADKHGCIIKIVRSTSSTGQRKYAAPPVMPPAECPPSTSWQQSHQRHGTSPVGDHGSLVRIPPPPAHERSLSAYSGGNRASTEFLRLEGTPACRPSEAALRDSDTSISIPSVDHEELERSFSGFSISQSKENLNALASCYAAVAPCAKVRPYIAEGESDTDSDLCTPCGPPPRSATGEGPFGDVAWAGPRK
Sequence of G-protein coupled receptor 55 (Q9Y2T6 whole entry): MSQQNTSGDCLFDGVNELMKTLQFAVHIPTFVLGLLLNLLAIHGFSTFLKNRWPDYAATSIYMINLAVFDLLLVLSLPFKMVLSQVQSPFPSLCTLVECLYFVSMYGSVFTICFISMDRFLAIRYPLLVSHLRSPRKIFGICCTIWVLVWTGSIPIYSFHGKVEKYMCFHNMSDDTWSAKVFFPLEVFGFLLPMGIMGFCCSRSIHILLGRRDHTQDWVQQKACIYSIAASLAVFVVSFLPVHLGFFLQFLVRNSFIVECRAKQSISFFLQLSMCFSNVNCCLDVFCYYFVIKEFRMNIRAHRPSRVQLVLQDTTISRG
Sequence of Nonstructural protein 1 (Q194T2 whole entry): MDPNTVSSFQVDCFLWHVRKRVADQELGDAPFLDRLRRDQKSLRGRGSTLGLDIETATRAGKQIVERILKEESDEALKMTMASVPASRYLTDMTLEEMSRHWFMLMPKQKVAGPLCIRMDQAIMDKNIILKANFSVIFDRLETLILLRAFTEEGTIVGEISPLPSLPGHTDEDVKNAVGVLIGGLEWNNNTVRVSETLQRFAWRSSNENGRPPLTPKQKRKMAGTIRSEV
Sequence of ORF 73 (O40947 whole entry): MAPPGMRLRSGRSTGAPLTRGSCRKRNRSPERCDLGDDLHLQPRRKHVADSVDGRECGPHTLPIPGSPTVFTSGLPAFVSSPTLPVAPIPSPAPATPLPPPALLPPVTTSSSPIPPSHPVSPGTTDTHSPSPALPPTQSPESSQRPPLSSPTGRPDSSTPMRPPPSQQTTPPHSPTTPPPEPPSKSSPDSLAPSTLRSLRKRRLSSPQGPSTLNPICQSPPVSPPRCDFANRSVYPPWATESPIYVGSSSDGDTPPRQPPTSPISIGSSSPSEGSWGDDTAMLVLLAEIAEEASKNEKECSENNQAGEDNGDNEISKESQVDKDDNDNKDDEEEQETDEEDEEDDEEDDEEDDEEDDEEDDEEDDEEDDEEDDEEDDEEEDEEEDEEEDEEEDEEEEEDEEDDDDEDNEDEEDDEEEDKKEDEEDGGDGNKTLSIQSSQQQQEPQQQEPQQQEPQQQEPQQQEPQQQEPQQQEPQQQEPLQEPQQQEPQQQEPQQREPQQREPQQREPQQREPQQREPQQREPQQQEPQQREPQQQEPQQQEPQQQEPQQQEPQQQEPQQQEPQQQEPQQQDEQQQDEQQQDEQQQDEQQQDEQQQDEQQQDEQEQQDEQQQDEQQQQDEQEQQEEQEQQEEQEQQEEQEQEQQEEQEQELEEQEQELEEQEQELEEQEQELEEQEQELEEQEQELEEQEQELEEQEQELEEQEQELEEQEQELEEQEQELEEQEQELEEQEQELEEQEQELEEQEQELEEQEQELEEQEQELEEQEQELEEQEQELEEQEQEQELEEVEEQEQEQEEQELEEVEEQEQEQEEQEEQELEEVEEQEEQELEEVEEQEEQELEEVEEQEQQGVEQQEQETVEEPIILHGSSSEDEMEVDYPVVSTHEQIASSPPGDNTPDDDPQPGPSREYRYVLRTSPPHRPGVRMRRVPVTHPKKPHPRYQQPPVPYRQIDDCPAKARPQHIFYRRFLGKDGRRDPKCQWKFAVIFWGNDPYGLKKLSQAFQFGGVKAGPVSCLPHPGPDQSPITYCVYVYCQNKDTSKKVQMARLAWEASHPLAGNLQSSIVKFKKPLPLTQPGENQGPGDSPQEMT
Sequence of Phospholipase A2 (P04054 whole entry): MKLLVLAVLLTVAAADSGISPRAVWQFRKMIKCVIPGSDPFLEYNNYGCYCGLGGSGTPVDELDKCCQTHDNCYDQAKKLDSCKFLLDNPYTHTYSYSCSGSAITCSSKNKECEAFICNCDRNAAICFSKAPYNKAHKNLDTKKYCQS

On to `N=C(N)c1ccc(/N=N/c2c(O)ccc3c2[nH]c2ccccc23)cc1`, for which the IC50 – broadly, the midpoint of a concentration-inhibition curve – on Troponin, cardiac muscle is 8.6 µM (active); at Nonstructural protein 1, 6.65 µM (active); at Cysteine protease ATG4B it was 5.61 µM (active); on Phospholipase A2, 9.6 µM (active); in experiment [3], 12.7 µM (active); in [6] it was 2.48 µM (active). Moreover, the AC50 (commonly the midpoint of the concentration-response curve, whichever way the signal moves) in experiment [1] was 1.31 µM (active); in [4], 2.15 µM (active). Moreover, the CC50 (in general, the concentration that lowers cell viability or growth by half) was 67.4 µM (active) in experiment [2] and 12.5 µM (active) in experiment [5].
`Cc1ccc(NC(=O)Nc2cccnc2)cc1C`: the EC50 – broadly, the concentration at which the effect is half-maximal – in experiment [7] is 13.4 µM (active).
As to `O=C(c1ccco1)N1CCN(c2ncnc3c2nnn3Cc2ccccc2Cl)CC1`, the EC50 in experiment [8] was 13.7 µM (inactive).
In the case of `NC(S)=NN=Cc1ccc(-c2ccc(S(=O)(=O)Nc3ncccn3)cc2)o1`, the AC50 on ORF 73 is 97.3 µM (active); in [9] it was 15.3 µM (active).
In the case of `COc1ccc(N(C(=O)CCl)C(C(=O)NCCc2ccccc2)C(C)C)cc1Cl` (configuration not stated), the concentration at half-maximal activity (AC50) was 1.3 µM (active) in experiment [10], 0.887 µM (active) in experiment [11], 0.895 µM (active) in experiment [12] and 1.81 µM (active) in experiment [13].
For the molecule `O=C(CCl)N(CCCCNC(=O)C(F)(F)F)c1ccc([N+](=O)[O-])cc1`, in experiment [14], the IC50 is 0.012 µM (active).
For the molecule `O=c1c2ccc(F)cc2sn1-c1cc(Cl)c(Cl)cc1Cl`, the IC50 in experiment [15] is > 50 µM (inactive); at Phosphomannomutase 2 it was > 100 µM (inactive); in [16], 0.563 µM (active).

The values are drawn from ChEMBL document CHEMBL1201862, “PubChem BioAssay data set” (2004).
